Experimental data taken from US20050009005A1, “Methods of using quantitative lipid metabolome data” (Lipomics Technologies, Inc., priority 2001, published 2005).

Tested on: de novo fatty acid synthesis
Experiment: Lipid metabolite profile of plasma, heart, liver and inguinal adipose of CL316,243-treated mice (trial 2; Tables 7 and 8)
Format: in vivo
Details: for 14:0 / 16:0 / 16:1n7 / 18:0 / 18:1n7 / 18:1n9 / Saturates / Total / Total n7 / Total n9 / Total nMole of FA: mean
Excerpt: It is understood that the described methods can be used to analyze lipid metabolites from other subjects, including particularly animals other than mice.
Mouse tissue and plasma samples were a generous donation to Lipomics Technologies, Inc., from Dr. Edward Leiter of the Jackson Laboratory (Bar Harbor, Me.). Samples included the plasma, heart, liver and inguinal adipose of mice treated with pharmaceuticals or their corresponding controls.
In trial 2, male, inbred NON mice were fed a control with or without the presence of the β-3 adrenergic agonist CL316,243 for four weeks (at 0.001% CL316,243 by weight in the dietary chow).
In both studies, five treated and five control mice were used. Following the treatments and the killing of the mice, tissues and plasma were taken, chilled to −80 ° C. and shipped to the analysis laboratory at Lipomics Technologies in a frozen state.
Tissue processing and lipid extraction, including provision of internal standards, was carried out essentially as described in Watkins et al. (J. Lipid Res. Papers in Press, 10.1184/jlf.M200169-JLF200, published August 16, 2002), and in co-owned international application PCT/US02/21426, entitled “GENERATING, VIEWING, INTERPRETING, AND UTILIZING A QUANTITATIVE DATABASE OF METABOLITES,” both of which are incorporated in their entirety herein by reference.
The separation of lipid classes was performed in some instance by preparative thin-layer chromatography (TLC). To remove any residual metal or other damaging contaminants on the TLC plates, each plate was washed prior to use. Washing the plates is a three-step process that involves impregnating each plate with ethylenediamine tetraacetic acid (EDTA) and rinsing the plates once with methanol and once with chloroform. Each plate is first impregnated with 1 mM EDTA, pH 5.5, by ascending development using the method of Ruiz (J. Lipid Res. 38, 1482-1489, 1997). After each plate was completely developed, it was dried in air overnight. Once dry, each plate was developed in methanol, dried, and developed in chloroform in the same direction as the development with EDTA. The washed plates were then dried in air. Just prior to use, each plate was activated by heating to 110° C. for 10 minutes.
To prepare the TLC chamber for chromatography, Whatman (Clifton, N.J.) filter paper was cut into 20×80-cm strips and wrapped around the inside wall of a 30×60×10-cm glass development chamber. One hundred milliliters of the appropriate mobile phase was added to the chamber, and the chambers were sealed and allowed to equilibrate. Chambers were considered equilibrated when the solvent front had completely ascended the filter paper. The mobile phase employed for the separation of phospholipid classes (lyso-phospholipids, sphingomyelin, phosphatidylcholine, phosphatidylserine, phosphatidylethanolamine and cardiolipin) was a modification of the solvent system described by Holub and Skeaf (“Nutritional regulation of cellular phosphatidylinositol,” in Methods in Enzymology, ed. Conn, P. M. (Academic Press, Inc., Orlando), pp. 234-243, 1987) consisting of chloroform/methanol/acetic acid/water (100:67:7:4, by volume).
For the separation of neutral lipid classes (free fatty acids, free sterols, triacylglycerides and cholesterol esters), a solvent system consisting of petroleum ether/diethyl ether/acetic acid (80:20:1, by volume) was used (Mangold, Thin Layer Chromatography—A Laboratory Handbook (Springer-Verlag, New York), 1969).
After the TLC plate was activated, the sample extracts were spotted onto the activated plate. As a general rule, samples were spotted at an estimated concentration such that no single lipid class was present at more than 25 jig per centimeter of plate width following chromatography. This ensured that the plate was not overloaded and minimized the risk of cross-contamination between lipid classes (cross-contamination is readily identified during sample analysis as each lipid class contains unique internal standards). […]

For `C[C@H](Cc1ccc2c(c1)OC(C(=O)[O-])(C(=O)[O-])O2)NC[C@H](O)c1cccc(Cl)c1.[Na+].[Na+]` [CL316,243], the “14:0” value (Adipose, CE) was 65.2 nanomoles per gram, the “16:0” value (Adipose, CE) was 326.2 nanomoles per gram and the “16:1n7” value (Adipose, CE) was 85.7 nanomoles per gram. The “18:0” value (Adipose, CE) was 72.1 nanomoles per gram, the “18:1n7” value (Adipose, CE) was 50.6 nanomoles per gram and the “18:1n9” value (Adipose, CE) was 344.4 nanomoles per gram. The “14:0” value (Adipose, FFA) was 833.3 nanomoles per gram, the “16:0” value (Adipose, FFA) was 6822.9 nanomoles per gram and the “16:1n7” value (Adipose, FFA) was 2652.0 nanomoles per gram. For the same compound, the “18:0” value (Adipose, FFA) was 1467.5 nanomoles per gram, the “18:1n7” value (Adipose, FFA) was 864.3 nanomoles per gram and the “18:1n9” value (Adipose, FFA) was 9845.4 nanomoles per gram. The “14:0” value (Adipose, PL) was 74.4 nanomoles per gram, the “16:0” value (Adipose, PL) was 1403.3 nanomoles per gram and the “16:1n7” value (Adipose, PL) was 291.2 nanomoles per gram. The “18:0” value (Adipose, PL) was 1249.1 nanomoles per gram, the “18:1n7” value (Adipose, PL) was 118.1 nanomoles per gram and the “18:1n9” value (Adipose, PL) was 794.7 nanomoles per gram. For the same compound, the “14:0” value (Adipose, TAG) was 79501.6 nanomoles per gram, the “16:0” value (Adipose, TAG) was 666399.1 nanomoles per gram and the “16:1n7” value (Adipose, TAG) was 265948.0 nanomoles per gram. For the same compound, the “18:0” value (Adipose, TAG) was 73800.5 nanomoles per gram, the “18:1n7” value (Adipose, TAG) was 49837.1 nanomoles per gram and the “18:1n9” value (Adipose, TAG) was 793227.6 nanomoles per gram. The “14:0” value (Adipose, lipid class CE) was 4.5 percentage of total fatty acids, the “16:0” value (Adipose, lipid class CE) was 24.4 percentage of total fatty acids and the “16:1n7” value (Adipose, lipid class CE) was 6.8 percentage of total fatty acids. For the same compound, the “18:0” value (Adipose, lipid class CE) was 5.1 percentage of total fatty acids, the “18:1n7” value (Adipose, lipid class CE) was 3.5 percentage of total fatty acids and the “18:1n9” value (Adipose, lipid class CE) was 26.2 percentage of total fatty acids. The Saturates (Adipose, lipid class CE) was 35.7 percentage of total fatty acids, the Total (Adipose, lipid class CE) was 100.0 percentage of total fatty acids and the “Total n7” value (Adipose, lipid class CE) was 10.3 percentage of total fatty acids. The “Total n9” value (Adipose, lipid class CE) was 28.8 percentage of total fatty acids, the “14:0” value (Adipose, lipid class FFA) was 2.6 percentage of total fatty acids and the “16:0” value (Adipose, lipid class FFA) was 21.7 percentage of total fatty acids. For the same compound, the “16:1n7” value (Adipose, lipid class FFA) was 9.2 percentage of total fatty acids, the “18:0” value (Adipose, lipid class FFA) was 6.8 percentage of total fatty acids and the “18:1n7” value (Adipose, lipid class FFA) was 2.8 percentage of total fatty acids. For the same compound, the “18:1n9” value (Adipose, lipid class FFA) was 30.7 percentage of total fatty acids, the Saturates (Adipose, lipid class FFA) was 31.8 percentage of total fatty acids and the Total (Adipose, lipid class FFA) was 100.0 percentage of total fatty acids. The “Total n7” value (Adipose, lipid class FFA) was 12.0 percentage of total fatty acids, the “Total n9” value (Adipose, lipid class FFA) was 31.5 percentage of total fatty acids and the “14:0” value (Adipose, lipid class PL) was 1.4 percentage of total fatty acids. For the same compound, the “16:0” value (Adipose, lipid class PL) was 19.9 percentage of total fatty acids, the “16:1n7” value (Adipose, lipid class PL) was 5.5 percentage of total fatty acids and the “18:0” value (Adipose, lipid class PL) was 16.1 percentage of total fatty acids. The “18:1n7” value (Adipose, lipid class PL) was 1.9 percentage of total fatty acids, the “18:1n9” value (Adipose, lipid class PL) was 14.6 percentage of total fatty acids and the Saturates (Adipose, lipid class PL) was 39.0 percentage of total fatty acids. The Total (Adipose, lipid class PL) was 100.0 percentage of total fatty acids, the “Total n7” value (Adipose, lipid class PL) was 7.4 percentage of total fatty acids and the “Total n9” value (Adipose, lipid class PL) was 15.3 percentage of total fatty acids. The “14:0” value (Adipose, lipid class TAG) was 3.3 percentage of total fatty acids, the “16:0” value (Adipose, lipid class TAG) was 26.9 percentage of total fatty acids and the “16:1n7” value (Adipose, lipid class TAG) was 10.8 percentage of total fatty acids. The “18:0” value (Adipose, lipid class TAG) was 2.9 percentage of total fatty acids, the “18:1n7” value (Adipose, lipid class TAG) was 2.0 percentage of total fatty acids and the “18:1n9” value (Adipose, lipid class TAG) was 31.9 percentage of total fatty acids. For the same compound, the Saturates (Adipose, lipid class TAG) was 33.3 percentage of total fatty acids, the Total (Adipose, lipid class TAG) was 100.0 percentage of total fatty acids and the “Total n7” value (Adipose, lipid class TAG) was 12.9 percentage of total fatty acids. For the same compound, the “Total n9” value (Adipose, lipid class TAG) was 32.2 percentage of total fatty acids, the “lipid concentrations in plasma” value (CL316,243 4 weeks vs controls) was “decreased” and the “lipid synthesis in tissues” value (CL316,243 4 weeks vs controls (Table 7)) was “decreased”. For the same compound, the “vaccenic acid concentrations in these lipid classes” value (CL316,243 4 weeks vs controls, heart, liver, adipose, plasma) was “typically decreased”, the “14:0” value (Heart, CE) was 59.3 nanomoles per gram and the “16:0” value (Heart, CE) was 187.4 nanomoles per gram. For the same compound, the “16:1n7” value (Heart, CE) was 36.2 nanomoles per gram, the “18:0” value (Heart, CE) was 85.3 nanomoles per gram and the “18:1n7” value (Heart, CE) was 19.6 nanomoles per gram. The “18:1n9” value (Heart, CE) was 389.5 nanomoles per gram, the Saturates (Heart, CE) was 366.8 nanomoles per gram and the “Total n7” value (Heart, CE) was 55.8 nanomoles per gram. For the same compound, the “Total n9” value (Heart, CE) was 405.7 nanomoles per gram, the “Total nMole of FA” value (Heart, CE) was 1226.9 nanomoles per gram and the “14:0” value (Heart, CL) was 76.3 nanomoles per gram. The “16:0” value (Heart, CL) was 231.1 nanomoles per gram, the “16:1n7” value (Heart, CL) was 204.0 nanomoles per gram and the “18:0” value (Heart, CL) was 397.1 nanomoles per gram. For the same compound, the “18:1n7” value (Heart, CL) was 381.8 nanomoles per gram, the “18:1n9” value (Heart, CL) was 956.2 nanomoles per gram and the Saturates (Heart, CL) was 776.3 nanomoles per gram. For the same compound, the “Total n7” value (Heart, CL) was 585.8 nanomoles per gram, the “Total n9” value (Heart, CL) was 1011.4 nanomoles per gram and the “Total nMole of FA” value (Heart, CL) was 2975.1 nanomoles per gram. The “14:0” value (Heart, FFA) was 181.4 nanomoles per gram, the “16:0” value (Heart, FFA) was 1012.4 nanomoles per gram and the “16:1n7” value (Heart, FFA) was 156.8 nanomoles per gram. For the same compound, the “18:0” value (Heart, FFA) was 427.8 nanomoles per gram, the “18:1n7” value (Heart, FFA) was 139.4 nanomoles per gram and the “18:1n9” value (Heart, FFA) was 1964.0 nanomoles per gram. The Saturates (Heart, FFA) was 1683.2 nanomoles per gram, the “Total n7” value (Heart, FFA) was 296.1 nanomoles per gram and the “Total n9” value (Heart, FFA) was 2017.6 nanomoles per gram. The “Total nMole of FA” value (Heart, FFA) was 6044.8 nanomoles per gram, the “14:0” value (Heart, PC) was 94.6 nanomoles per gram and the “16:0” value (Heart, PC) was 8127.9 nanomoles per gram. For the same compound, the “16:1n7” value (Heart, PC) was 108.7 nanomoles per gram, the “18:0” value (Heart, PC) was 5235.9 nanomoles per gram and the “18:1n7” value (Heart, PC) was 568.2 nanomoles per gram. For the same compound, the “18:1n9” value (Heart, PC) was 1990.2 nanomoles per gram, the Saturates (Heart, PC) was 13577.6 nanomoles per gram and the “Total n7” value (Heart, PC) was 676.9 nanomoles per gram. The “Total n9” value (Heart, PC) was 2052.1 nanomoles per gram, the “Total nMole of FA” value (Heart, PC) was 15087.3 nanomoles per gram and the “14:0” value (Heart, PE) was 27.5 nanomoles per gram. The “16:0” value (Heart, PE) was 1814.0 nanomoles per gram, the “16:1n7” value (Heart, PE) was 59.6 nanomoles per gram and the “18:0” value (Heart, PE) was 5241.4 nanomoles per gram. For the same compound, the “18:1n7” value (Heart, PE) was 250.5 nanomoles per gram, the “18:1n9” value (Heart, PE) was 934.9 nanomoles per gram and the “14:0” value (Heart, PL) was 170.5 nanomoles per gram. For the same compound, the “16:0” value (Heart, PL) was 10799.7 nanomoles per gram, the “16:1n7” value (Heart, PL) was 344.7 nanomoles per gram and the “18:0” value (Heart, PL) was 13320.8 nanomoles per gram. For the same compound, the “18:1n7” value (Heart, PL) was 1181.0 nanomoles per gram, the “18:1n9” value (Heart, PL) was 4121.5 nanomoles per gram and the “14:0” value (Heart, PS/I) was 33.4 nanomoles per gram.
